{
  "source": "paper PMC3547949",
  "about": "“The Immunosuppressive Agent Mizoribine Monophosphate Is an Inhibitor of the Human RNA Capping Enzyme” (PLoS ONE, 2013)",
  "key": {"[1]": {"target": "T1, human RNA capping enzyme (HCE) (Homo sapiens, UniProt O60942)", "T1 construct": "full-length bifunctional HCE protein (amino acid 1–597); 6-His (N); made in house; host or cells: Escherichia coli BL21(DE3), pET28a", "assay": "Complete RNA capping reaction (RTase+GTase) of a 5′-triphosphate RNA", "assay_type": "biochemical", "protocol": "Reaction mixtures containing 5 µM [α-^32P]GTP, 5 µM of 5′-triphosphate RNA, 0.1 µM HCE, 50 mM Tris-HCl, pH 7.5, 5 mM MgCl2, 500 µM DTT, 0.5 ng/µl pyrophosphatase (Roche), and 1 U of RNAse Out (Invitrogen) were incubated for 15 min at 37°C. Reactions were stopped by the addition of 20 µl of phenol-chloroform. 10 µl of loading dye (97% formamide) was added to the aqueous phase and submitted to electrophoresis on a denaturing 10% polyacrylamide gel. Formation of the ^32P-radiolabeled GpppRNA was quantified with a PhosphorImager.\nIn order to investigate if MZP could inhibit the RNA capping reaction, we initially addressed its impact on the complete RNA capping reaction (RTase+GTase). A cold 5′-triphosphate RNA was incubated in the presence of HCE, [α-^32P]GTP, magnesium and increasing concentrations of MZP. […] To ensure that the inhibition by MZP was specific, the reaction was performed in the presence of increasing concentrations of GMP which is chemically related to MZP."}, "[2]": {"target": "T2, HCE RTase activity (Homo sapiens, UniProt O60942)", "T2 construct": "full-length bifunctional HCE protein (amino acid 1–597); 6-His (N); made in house; host or cells: Escherichia coli BL21(DE3), pET28a", "assay": "RNA triphosphatase (RTase) assay", "assay_type": "biochemical", "settings": "MZP up to 10 mM, full-length HCE", "protocol": "Reaction mixtures containing 50 mM Tris-HCl, pH 7.5, 5 mM MgCl2, 500 µM DTT, 3 µM of γ-^32P-radiolabeled 5′-triphosphate RNA substrate (32 nt), 0.1 µM HCE, and various concentration of MZP (as indicated) were incubated for 10 min at 37°C. The reactions were stopped by the addition of 2 µl of 5 M formic acid. Aliquots of each sample were analyzed on polyethyleneimine-cellulose thin-layer chromatography (TLC) plate, and developed with 0.5 M LiCl and 1 M formic acid. The release of ^32Pi was quantified by scanning the TLC plates with a PhosphorImager.\nWe next investigated the susceptibility of the RTase domain of HCE to MZP inhibition. To specifically monitor the effect of MZP on the RTase activity, a γ-^32P-radiolabeled 5′-triphosphate RNA was incubated with HCE and magnesium. RTase activity was monitored through the analysis of the ^32Pi product released from the radiolabeled RNA by TLC and autoradiography."}, "[3]": {"target": "T3, HCE GTase activity (Homo sapiens, UniProt O60942)", "T3 construct": "full-length bifunctional HCE protein (amino acid 1–597); 6-His (N); made in house; host or cells: Escherichia coli BL21(DE3), pET28a", "assay": "Complete two-step RNA guanylyltransferase (GTase) reaction on 5′-diphosphate RNA", "assay_type": "biochemical"}, "[4]": {"system": "HCE GTase activity", "assay": "Complete two-step RNA guanylyltransferase (GTase) reaction on 5′-diphosphate RNA", "assay_type": "biochemical, human", "settings": "complete GTase reaction; HCE vs D1R, A103R, Ceg1"}, "[5]": {"system": "HCE-G229–597 (GTase domain of HCE)", "assay": "Complete GTase reaction with isolated GTase domain", "assay_type": "biochemical, human"}, "[6]": {"target": "T4, D1R (Vaccinia virus, UniProt P04298)", "assay": "Complete GTase reaction, vaccinia virus GTase", "assay_type": "biochemical"}, "[7]": {"target": "T5, A103R (Paramecium bursaria Chlorella virus 1, UniProt Q84424)", "T5 sequence (Q84424 whole entry, stated change not applied)": "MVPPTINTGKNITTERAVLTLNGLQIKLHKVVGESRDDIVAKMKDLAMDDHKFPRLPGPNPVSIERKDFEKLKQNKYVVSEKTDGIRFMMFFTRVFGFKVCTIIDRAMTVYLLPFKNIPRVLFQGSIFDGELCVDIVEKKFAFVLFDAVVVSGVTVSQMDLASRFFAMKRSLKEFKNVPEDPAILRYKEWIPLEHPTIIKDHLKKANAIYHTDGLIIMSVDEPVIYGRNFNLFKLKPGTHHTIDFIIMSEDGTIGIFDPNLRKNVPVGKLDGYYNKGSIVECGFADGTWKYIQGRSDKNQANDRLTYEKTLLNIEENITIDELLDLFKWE", "assay_type": "biochemical, Chlorella virus (PBCV-1)"}, "[8]": {"target": "T6, Ceg1 (Saccharomyces cerevisiae, UniProt Q01159)", "T6 sequence (Q01159 1-459)": "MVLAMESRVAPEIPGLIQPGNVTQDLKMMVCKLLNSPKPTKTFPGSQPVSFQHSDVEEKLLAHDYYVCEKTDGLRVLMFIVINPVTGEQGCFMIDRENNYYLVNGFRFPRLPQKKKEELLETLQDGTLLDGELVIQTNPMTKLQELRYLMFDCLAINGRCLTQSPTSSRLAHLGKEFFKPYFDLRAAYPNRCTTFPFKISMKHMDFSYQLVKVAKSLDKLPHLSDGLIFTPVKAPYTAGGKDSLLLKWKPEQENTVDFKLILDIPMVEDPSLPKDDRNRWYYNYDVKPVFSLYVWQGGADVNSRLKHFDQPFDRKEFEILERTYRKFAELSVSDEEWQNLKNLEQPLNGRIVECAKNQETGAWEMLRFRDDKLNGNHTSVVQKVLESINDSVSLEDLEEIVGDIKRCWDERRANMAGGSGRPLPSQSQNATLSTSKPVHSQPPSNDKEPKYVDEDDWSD", "assay": "Complete GTase reaction, yeast GTase", "assay_type": "biochemical", "settings": "0,5 µM Ceg1"}, "[9]": {"target": "T7, HCE (Homo sapiens, UniProt O60942)", "T7 construct": "full-length bifunctional HCE protein (amino acid 1–597); 6-His (N); made in house; host or cells: Escherichia coli BL21(DE3), pET28a", "assay": "Enzyme-GMP (EpG) complex formation, first GTase step", "assay_type": "biochemical", "protocol": "The enzyme-GMP complex formation assays were carried out for 3 min at 37°C in a buffer containing 1 µM [α-^32P]GTP, 4 µM HCE, 50 mM Tris-HCl, pH 7.5, 5 mM MgCl2, 500 µM DTT, 0.5 ng/µl pyrophosphatase (Roche), and various concentration of MZP (as indicated). The reactions were stopped by the addition of 5 µl of loading dye (50 mM EDTA, 2% β-mercaptoethanol, 1% SDS) and analyzed on a 12% polyacrylamide gel containing 0.1% SDS. The formation of the radiolabeled HCE-[α-^32P]GMP covalent complex was quantified with a PhosphorImager. Similar experiments were conducted using only the GTase domain of HCE (HCE-G229–597). Alternatively, equimolar concentrations of MgCl2 to MZP were added to the reaction in addition to the base 5 mM MgCl2 from the buffer (MZP✯Mg^2+).\nWe next set out to identify which step (if any) of the GTase reaction is more susceptible to MZP inhibition. In order to investigate the inhibitory potency of MZP on HCE-GMP complex formation (first step), HCE was incubated with [α-^32P]GTP, magnesium and increasing concentrations MZP. […] The formation of the EpG covalent complex in single turnover condition was analyzed by SDS-PAGE and quantified by phosphorimaging. […] Nevertheless, MZP inhibition of the EpG complex formation is weak and could not be solely responsible for the global inhibitory potency of MZP."}, "[10]": {"target": "T4, D1R", "assay": "Enzyme-GMP (EpG) complex formation, vaccinia virus GTase", "assay_type": "biochemical"}, "[11]": {"target": "T5, A103R", "assay_type": "biochemical, Chlorella virus (PBCV-1)", "remark": "listed apart in the source"}, "[12]": {"target": "T6, Ceg1", "assay": "Enzyme-GMP (EpG) complex formation, yeast GTase", "assay_type": "biochemical", "settings": "GTase first step, compared with other GTases"}, "[13]": {"target": "T7, HCE", "assay": "GMP transfer on a 5′-diphosphate RNA, second GTase step", "assay_type": "biochemical", "settings": "single turnover", "protocol": "Formation of the enzyme-GMP complex was initially performed for 15 min at 37°C in a buffer containing 1.5 µM [α-^32P]GTP, 1 µM HCE, 70 mM Tris-HCl, pH 7.5, 7.5 mM MgCl2, 70 µM DTT, 0.7 ng/µl pyrophosphatase (Roche), and 1 U of RNAse Out (Invitrogen). The transfer reaction was then initiated by adding a 5′-diphosphate RNA (32 nt) to a final concentration of 0.5 µM with various concentration of MZP (as indicated). After 30 sec at 37°C, the transfer reaction was stopped by the addition of 20 µl of phenol-chloroform. 10 µl of loading dye (97% formamide) was added to the aqueous phase and submitted to electrophoresis on a denaturing 10% polyacrylamide gel. The formation of the ^32P-radiolabeled GpppRNA was quantified with a PhosphorImager.\nWe next investigated if the second step of the GTase reaction could be impaired by MZP. EpG complex formation was allowed to initially form upon incubation of HCE with excess [α-^32P]GTP, magnesium and pyrophosphatase. Next, various concentrations of MZP and a cold 5′-diphosphate RNA were added to initiate the transfer of the [α-^32P]GMP moiety onto the RNA in single turnover condition."}, "[14]": {"target": "T7, HCE", "assay": "MZP transfer onto an acceptor RNA (cap donor substrate test)", "assay_type": "biochemical", "settings": "2 mM MZP, 2 h 37°C", "protocol": "Reaction mixtures containing 50 mM Tris-HCl, pH 7.5, 5 mM MgCl2, 500 µM DTT, 0.7 ng/µl pyrophosphatase (Roche), and 1 U of RNAse Out (Invitrogen), 1 µM of 5′-diphosphate RNA substrate (32 nt) harboring a α-^32P-radiolabeled 5′-phosphate, 0.2 µM HCE were incubated in absence or in presence of 2 mM GTP or MZP for 2 h at 37°C. The reaction pH was adjusted to 5.2 with 50 mM NaOAc followed by the addition of 5 µg of Nuclease P1 and incubation at 37°C for 60 min. The digestion were further adjusted with 50 mM Tris-HCl to pH 8.0, and digested with 1 U of alkalie phosphatase (Roche) for 30 min at 37°C. The reaction products were analyzed by thin-layer chromatography (TLC) on a polyethyleneimine-cellulose plate developed with 0.4 M ammonium sulfate.\nSupplementary file pone.0054621.s002.tif: Figure S2 MZP as a potential cap donor substrate for HCE. A 5′-diphosphate acceptor RNA initiating with a [α-^32P] guanosine was incubated in absence (lane 1) or in presence of MZP (lane 2) or GTP (lane 3) and HCE. The capping reaction was sequentially submitted to nuclease P1 then alkaline phosphatase prior to analysis by TLC on a polyethyleneimine-cellulose plate. An autoradiogram of the plate is shown. The locations of the origin and GpppG product are indicated by arrows (right). (TIF) Click here for additional data file."}, "[15]": {"parameters": "method as in PMID 19336917, PMID 15773958, PMID 11896891, PMID 12036371", "settings": "cited from earlier work"}, "[16]": {"system": "HEK 293T cells", "assay": "Inhibition of mRNA cap formation in cells (firefly luciferase reporter)", "settings": "40 µM or 120 µM mizoribine, all cell lines, versus untreated cells"}},
  "note": "Where two headings read alike, the source gives them in different places.",
  "data": [
    {"smiles": "Nc1nc2c(ncn2[C@@H]2O[C@H](COP(=O)(O)O)[C@@H](O)[C@H]2O)c(=O)[nH]1", "note": "[GMP]", "values": [
      {"measurement": "reduction of RNA capping", "setting": "[1]; GMP concentrations as high as 10 mM", "result": "≤ 25", "unit": "%"}
    ]},
    {"smiles": "NC(=O)c1ncn([C@@H]2O[C@H](COP(=O)(O)O)[C@@H](O)[C@H]2O)c1O", "note": "[MZP, Mizoribine monophosphate]", "values": [
      {"measurement": "IC50", "setting": "[1]; 0.1 µM HCE, 5 µM GTP, 5 µM 5′-triphosphate RNA, 5 mM MgCl2, 15 min 37°C", "result": 150, "unit": "µM"},
      {"measurement": "effect on RTase activity", "setting": "[2]", "result": "does not affect"},
      {"measurement": "mechanism of inhibition, complete GTase reaction", "setting": "[3]; Lineweaver-Burk, Km for GTP independent of MZP concentration", "result": "non-competitive"},
      {"measurement": "IC50", "setting": "[3]; steady-state, 5′-diphosphate RNA, full-length HCE", "result": 80, "unit": "µM"},
      {"measurement": "difference in susceptibility, HCE versus other GTases", "setting": "[4]", "result": "5-to 25 fold"},
      {"measurement": "decrease in potency versus full-length HCE", "setting": "[5]", "result": 10, "unit": "fold"},
      {"measurement": "IC50", "setting": "[6]", "result": 500, "unit": "µM"},
      {"measurement": "IC50", "setting": "[7]", "result": 750, "unit": "µM"},
      {"measurement": "IC50", "setting": "[8]", "result": "> 2000", "unit": "µM"},
      {"measurement": "mechanism of inhibition, EpG formation", "setting": "[9]; Lineweaver-Burk, maximal velocity unaffected by MZP", "result": "competitive"},
      {"measurement": "IC50", "setting": "[9]; single turnover, 4 µM HCE, 1 µM GTP, 3 min 37°C", "result": 3000, "unit": "µM"},
      {"measurement": "IC50", "setting": "[10]", "result": 3000, "unit": "µM"},
      {"measurement": "IC50", "setting": "[11]", "result": 2000, "unit": "µM"},
      {"measurement": "inhibition of EpG formation", "setting": "[12]", "result": "slightly less affected"},
      {"measurement": "impact on GMP transfer to acceptor RNA (second GTase step)", "setting": "[13]", "result": "only has a minor impact"},
      {"measurement": "use as substrate and transfer onto acceptor RNA", "setting": "[14]", "result": "not able to use the MZP as a substrate"}
    ]},
    {"smiles": "NC(=O)c1ncn([C@@H]2O[C@H](CO)[C@@H](O)[C@H]2O)c1O", "note": "[mizoribine]", "values": [
      {"measurement": "binding to serum proteins", "setting": "[15]", "result": 2.3, "unit": "%"},
      {"measurement": "effect on reporter protein expression", "setting": "[16]", "result": "global reduction in protein expression"}
    ]}
  ]
}
